Results on 2 compounds are retold here after paper PMC12434091, “Real-time monitoring with iTLR4 assay identifies ligand-dependent TLR4-TLR4 conformational dynamics” (Frontiers in Immunology, 2025).

The assay has as its target T1, Toll-like receptor 4 (TLR4) (Homo sapiens, UniProt O00206).
T1 construct: HA-TLR4-NLuc and HA-TLR4-Venus (C-terminal tags); with MD2 and CD14 (co-expressed; not required)
Kind of assay: BRET TLR4-TLR4 proximity assay (iTLR4) in transfected HEK293 cells. The class given is cell-based.

Usually EC50 stands for the concentration giving half of the maximal effect.

T1 sequence (O00206 24-839): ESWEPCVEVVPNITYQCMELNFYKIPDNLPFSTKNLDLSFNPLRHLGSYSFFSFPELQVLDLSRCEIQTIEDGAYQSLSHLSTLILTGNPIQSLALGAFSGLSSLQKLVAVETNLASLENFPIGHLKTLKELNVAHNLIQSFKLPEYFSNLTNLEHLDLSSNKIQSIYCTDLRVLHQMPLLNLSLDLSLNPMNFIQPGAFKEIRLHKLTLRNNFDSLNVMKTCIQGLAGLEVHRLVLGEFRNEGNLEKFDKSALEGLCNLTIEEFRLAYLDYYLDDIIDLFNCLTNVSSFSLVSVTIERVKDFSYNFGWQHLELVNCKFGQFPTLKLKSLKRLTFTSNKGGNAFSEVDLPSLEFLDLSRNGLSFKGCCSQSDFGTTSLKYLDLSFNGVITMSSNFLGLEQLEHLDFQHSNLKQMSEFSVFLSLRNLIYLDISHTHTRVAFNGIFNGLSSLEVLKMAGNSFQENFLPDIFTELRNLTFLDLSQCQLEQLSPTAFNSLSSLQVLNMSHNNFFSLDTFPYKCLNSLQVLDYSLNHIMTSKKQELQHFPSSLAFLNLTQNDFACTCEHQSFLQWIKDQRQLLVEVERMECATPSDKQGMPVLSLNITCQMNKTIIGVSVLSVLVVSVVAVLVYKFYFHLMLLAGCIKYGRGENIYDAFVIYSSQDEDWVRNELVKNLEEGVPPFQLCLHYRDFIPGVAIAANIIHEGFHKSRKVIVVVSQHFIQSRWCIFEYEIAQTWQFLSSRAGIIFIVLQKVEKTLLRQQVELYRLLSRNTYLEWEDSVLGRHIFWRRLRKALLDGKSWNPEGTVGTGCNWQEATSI
T1 sequence (Q9Y6Y9 19-160 partner): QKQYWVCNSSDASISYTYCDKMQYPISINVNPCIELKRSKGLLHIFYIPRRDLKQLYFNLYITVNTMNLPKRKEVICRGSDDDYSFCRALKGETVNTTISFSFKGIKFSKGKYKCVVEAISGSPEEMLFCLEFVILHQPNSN
T1 sequence (P08571 20-345 partner): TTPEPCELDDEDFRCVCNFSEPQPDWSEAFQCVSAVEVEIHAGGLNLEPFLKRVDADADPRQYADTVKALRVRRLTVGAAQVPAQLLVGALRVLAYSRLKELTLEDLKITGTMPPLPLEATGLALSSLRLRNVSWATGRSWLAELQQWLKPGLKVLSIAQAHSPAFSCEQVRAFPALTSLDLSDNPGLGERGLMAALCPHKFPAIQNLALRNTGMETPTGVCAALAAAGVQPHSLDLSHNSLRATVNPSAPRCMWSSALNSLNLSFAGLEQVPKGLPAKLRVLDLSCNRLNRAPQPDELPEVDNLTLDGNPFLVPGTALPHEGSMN

The compound `C=CCN1CC[C@@]23c4c5ccc(O)c4O[C@@H]2C(=O)CC[C@]3(O)[C@@H]1C5` [(+)-naloxone] had an EC50 of 4.2 µM.

`C=CCN1CC[C@]23c4c5ccc(O)c4O[C@H]2C(=O)CC[C@@]3(O)[C@H]1C5` [(-)-naloxone] gave an EC50 of 3 µM.
